“Also recorded” adds a separate entry of the source. Where a SMILES comes first, the peptide text is derived from it. Where no end group is shown, it is not given here. [ ]: non-standard residue; d: D form. ξ: configuration not given here. ξHyp = O=C(O)C1CC(O)CN1
What was measured:
[1] = system: Human umbilical vein endothelial cells (HUVEC); test: FGF2-stimulated endothelial cell tube formation on Matrigel matrix; type: cell-based; conditions: for % inhibition cell tube formation (area) / % inhibition cell tube formation (length): peptide 0.015 μmol, FGF2-stimulated HUVEC; for Cell Tube Formation (area) / Cell Tube Formation (length): HUVEC on Matrigel, FGF2 100 ng/mL, peptide 0.015 μmol added with FGF2, overnight; for Cell Tube Formation (length): length/area; for Inhibition of FGF2-stimulated EC tube formation, in words: in vitro, qualitative ranking
Procedure: Differentiation by endothelial cells was examined using a method developed by Grant et al. (In Vitro Cell Dev. Biol. 27A:327-336 (1991)). Matrigel® matrix, phenol-red free (commercially available from Becton Dickinson, Bedford, Mass.) was thawed overnight at 4° C. Using cold pipette tips, 3.0 mg/well of Matrigel® matrix was placed in a cold twenty-four-multiwell plate (Falcon). Matrigel® matrix was allowed to polymerize during incubation at 37° C. for 30 min. Human umbilical vein endothelial cells (HUVEC) were maintained at 37° C. with 5% CO2 and 95% humidity in endothelial cell growth medium with 2% fetal bovine serum (EGM). Tube assay was performed in endothelial cell basal medium (EBM) supplemented with 0.5% bovine serum albumin (BSA) and 1:100 diluted Insulin-Transferrin-Selenium-G supplement (I-T-Se, 100×). HUVEC were trypsinized and centrifuged and subsequently, washed twice in phosphate buffered saline (PBS). After counting, cell density was adjusted to 35,000 cells/mL. At final concentration of 35,000 cells/mL/well were treated with recombinant human fibroblast growth factor basic (FGF2) at 100 ng/mL and peptides (see below) dissolved in EBM medium at to a concentration of 0.015 μmol. Treated cells were incubated overnight at 37° C. with 5% CO2 and 95% humidity to allow cell attachment. Subsequently, the medium was aspirated and cells were fixed and stained using a modified HEMA-3 stain kit. Digital images of microtiter well sections were collected using a DKC5000 3-CCD color video camera system (Toshiba America, New York, N.Y.) and analyzed with the Image-Pro Plus software (Media Cybernetics, Silver Spring, Md.). The area and major axis length of stained cells having a tubular morphology on the Matrigel® matrix surface (Becton Dickinson, Bedford, Pa.) counted from 5 images/well.

[2] = system: FGF2-induced angiogenesis in the chorioallantoic membrane (CAM); test: FGF2-induced neovascularization on the chick chorioallantoic membrane (CAM), branch point count; type: in vivo; conditions: for Average # of Branch Points: FGF2 filter disk on CAM, peptide 16 μg topically, 48 h; for % Inhibition of branch point formation: 16 μg, FGF2-stimulated CAM
Procedure: In vivo neovascularization was examined by the method previously described by Auerbach et al. (J. Dev. Biol. 41:391-394 (1974)). Ten-day old embryos were purchased from Spafas, Inc. (Preston, Conn.) and were incubated at 37° C. with 55% relative humidity. In the dark with the help of a candling lamp a small hole was punctured in the shell concealing the air sac with a hypodermic needle. A second hole was punctured in the shell on the broadside of the egg directly over an […] portion of the embryonic membrane, as observed during candling. A false air sac was created beneath the second hole by the application of negative pressure to the first hole, which caused the chorioallantoic membrane (CAM) to separate from the shell. A window, approximately 1.0 cm^2, was cut in the shell over the dropped CAM with the use of a small crafts grinding wheel (Dremel, Division of Emerson Electric Company Racine, WI) which allowed direct access to the underlying CAM. Filter disks of #1 filter paper (Whatman International, United Kingdom) were soaked in 3 mg/mL cortisone acetate (Sigma, St. Louis, Mo.) in a solution of 95% ethanol and water and subsequently air dried under sterile conditions. FGF2 (Life Technologies, Gaithersburg, Md.) was used to grow vessels on the CAMs of 10-d old chick embryos. Sterile filter disks adsorbed with FGF2 dissolved in PBS at 1 μg/mL were placed on growing CAMs. At 24 h, test compounds or control vehicle was added directly to CAMs topically.
CAM tissue directly beneath FGF2-saturated filter disk was resected from embryos treated 48 h prior with compound or control. Tissues were washed three times with PBS. Sections were placed in a 35-mm petri dish (Nalge Nunc, Rochester, N.Y.) and examined under a SV6 stereomicroscope (Karl Zeiss, Thornwood, N.Y.) at 50× magnification. Digital images of CAM sections adjacent to filters were collected using a 3-CCD color video camera system (Toshiba America, New York, N.Y.) and analyzed with the Image-Pro Plus software (Media Cybernetics, Silver Spring, Md.) and can be seen in FIG. 2. Table 3 contains the number of vessel branch points contained in a circular region equal to the area of a filter disk counted for each section. Percent inhibition data is expressed as the quotient of the experimental value minus the negative control value divided by the difference between the positive control value and the negative control value.

human melanoma cells [3] = conditions: cited from earlier work
human melanoma cells [4] = conditions: cited from earlier work; remark: listed apart in the source
[5] = system: TSU-Pr (human prostrate) tumor; conditions: 45 μg, after 7 d
Procedure: Ten million tumor cells were placed on the surface of each CAM (7-d old embryo) and were cultured for one week. The resulting tumors were excised and cut into 50 mg fragments. […] Each treatment group incorporated at least ten tumors per experiment. Representative tumors were photographed at 10× magnification. Tumors were then excised from the egg and tumor weights were determined for each tumor. Data is presented as mean tumor weight per treatment group (±standard error of the mean). Statistical analysis was performed using Student's t-test.

Compound	% inhibition cell tube formation (area) [1]	% inhibition cell tube formation (length) [1]	% Inhibition of Branch Points in FGF2-Induced CAM Assay ([2]; 1 μg/CAM)	% Inhibition of Branch Points in FGF2-Induced CAM Assay ([2]; 5 μg/CAM)	% Inhibition of Branch Points in FGF2-Induced CAM Assay ([2]; 15 μg/CAM)	Inhibition of FGF2-stimulated EC tube formation, in words [1]	also measured
acetyl-Cys-Asn-Tyr-Tyr-Ser-Asn-Ser-Tyr-Ser-Phe-Trp-Leu (Ac-CNYYSNSYSFWL) [SEQ ID NO: 4, As defined in b173]	71% +/− 6	54% +/− 3					
FGF2: recombinant human fibroblast growth factor basic, angiogenic stimulus [reference compound]							Average # of Branch Points [2]: 263.88; Cell Tube Formation (area) [1]: 2.2501 +/− 0.28 10^4 square microns; Cell Tube Formation (length) [1]: 79.8272 +/− 8.66 mm/mm^2
CNYYSNSYSFWLASLNPER [SEQ ID NO:1, peptide of residues 185-203 of the NC1 domain of the α3-chain of collagen type IV]							Promotion of adhesion of human melanoma cells over controls (human melanoma cells [3]): 50-60%; Inhibition of proliferation of human melanoma cells (human melanoma cells [4]): 40%
CC(=O)N[C@@H](CO)C(=O)N[C@@H](CC(N)=O)C(=O)N1CC(O)CC1C(N)=O (stereo partly drawn) [SN-t4Hyp] (Ac-Ser-Asn-[ξHyp]-NH2)			39% +/− 11	60% +/− 7	71% +/− 8	most potent	
CC(=O)NC(CO)C(=O)NC(CC(N)=O)C(=O)NC(CO)C(N)=O (stereo not drawn) [acetyl-SNS-carboxamide, acetyl-Ser-Asn-Ser-carboxamide] (Ac-Ser-Asn-Ser-NH2; configuration not given here)	97% +/− 8	84% +/− 9				very potent inhibitor; also recorded: more potent inhibitor	% ave inhibition of TSU-Pr tumor growth (weight) ([5]; injected into tumors): 111%; Tumors showing significant weight shrinkage ([5]; ten tumors injected): Six tumors out of the ten; % Inhibition of branch point formation [2]: 100.23%; % Inhibition of branch point formation ([2]; listed as acetyl-Ser-Asn-Ser-carboxamide): 100%; Average # of Branch Points [2]: 91.60; Cell Tube Formation (area) [1]: 1.1011 +/− 0.12 10^4 square microns; Cell Tube Formation (length) [1]: 47.5267 +/− 4.31 mm/mm^2
CC(=O)N[C@@H](CO)C(=O)N[C@@H](CC(N)=O)C(=O)N[C@H](CO)C(N)=O [SNs] (Ac-Ser-Asn-[dS]-NH2)			62% +/− 7	78% +/− 6	69% +/− 8	most potent	
Ser-Gln-Ser [SQS]			101% +/− 7	121% +/− 6	82% +/− 7	most potent	
acetyl-Ser-Asn-Ser-Tyr-Ser-Phe-Trp-Leu (Ac-SNSYSFWL) [SEQ ID NO: 3, As defined in b173]	75% +/− 7	65% +/− 3					

Reference: patent US6815426B2, “Angiogenesis-inhibitory tripeptides, compositions and their methods of use” (E. I. du Pont de Nemours and Company, priority 2001, dated 2004)
